From the supplement of paper PMC9013687

Key:
Danio rerio embryo [1] = assay: EC10 Head-trunk angle_Decrease; higher = less potent; conditions: exposure time: 2 dpf
Description: (§1)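 Zebrafish embryos (UFZ-OBI strain) were exposed from 2 hpf for 48 h (2 dpf) or 96 h (4 dpf) at 28 °C; spontaneous tail coiling was scored at 25 hpf. Morphological features from automated image analysis (FishInspector), heart rate and locomotor response were fitted with drc models. Quantal endpoints were dichotomised at 2.5 SD from controls and fitted with a log-logistic model; heart rate, pigmentation and STC were normalised to the replicate control mean. Betamethasone was tested as betamethasone dipropionate, diflorasone as diflorasone diacetate.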

Danio rerio embryo [2] = assay: EC20 Head-trunk angle_Decrease; higher = less potent; conditions: exposure time: 2 dpf
Description: as §1

`C[Si](Cn1cncn1)(c1ccc(F)cc1)c1ccc(F)cc1` [Flusilazole] was tested, and the “EC10 Head-trunk angle Decrease” value (Danio rerio embryo [1]) was 4.35 µM and the “EC20 Head-trunk angle Decrease” value (Danio rerio embryo [2]) was 6.28 µM.
